{"source": "patent US12139458B2", "about": "“(2,5-dioxopyrrolidin-1-yl)(phenyl)-acetamide derivatives and their use in the treatment of neurological diseases” (UNIWERSYTET JAGIELLONSKI, priority 2019, dated 2024)", "assay_type_in_all_cases": "in vivo", "key": {"[1]": {"test_system": "male Swiss albino mice (CD-1)", "test": "Psychomotor seizure test 6 Hz (32 mA)", "conditions": "0.5 h, mice; for ED50 6 Hz (32 mA): i.p.", "method_in_brief": "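Compounds given i.p. in 1% aqueous Tween 30 min before a 3 s ocular stimulus (32 mA and/or 44 mA, 6 pulses/s) after lidocaine; mice normal within 10 s counted protected. ED50 from 3-4 groups of 6 mice; screening on groups of 4.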"}, "[2]": {"test_system": "male Swiss albino mice (CD-1)", "test": "Rotarod test (motor coordination)", "conditions": "i.p., 0.5 h", "protocol": "(§1) All procedures were carried out in accordance with applicable Polish and international guidelines on the ethics of animal testing, after obtaining appropriate institutional approval. The substances were administered intraperitoneally (i.p.), in 1% aqueous solution of Tween, as single injections with a volume of 10 ml/kg, 30 minutes before the given test. Screening was performed on groups consisted of 4 mice. […] All tests were carried out based on the procedures described in the specialist literature.\nMice were trained the day before the actual experiment. They were placed individually on a 2 cm diameter rod rotating at 10 revolutions per minute (rpm). During each training session, the animals remained on the rod for 3 minutes. The experiment was carried out 30 minutes after administration of the compounds. Motor coordination was tested at the speed of the rotating bar: 10 rpm during 60 seconds. Motor impairments were defined as the inability to remain on the rotating rod for 1 min.\n(§2) To perform a statistical evaluation of the results, one-way ANOVA variance analysis and Dunnett's post hoc test (multiple comparison test) were used. The value at the significance level p<0.05 was considered statistically significant."}, "[3]": {"test_system": "male Swiss albino mice (CD-1)", "test": "Maximal electroshock seizure test (MES)", "conditions": "0.5 h, mice", "method_in_brief": "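Seizures were induced by auricular electroshock (25 mA, 500 V, 0.2 s) 30 min after a single i.p. dose in 1% aqueous Tween, scoring hind-limb tonic extension. Animals were male Swiss CD-1 mice, 18–26 g; ED50 was estimated from 3–4 dose groups of 6.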"}, "[4]": {"test_system": "male Swiss albino mice (CD-1)", "test": "Subcutaneous pentylenetetrazole seizure test (scPTZ)", "conditions": "0.5 h, mice", "method_in_brief": "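Compounds given i.p. in 1% aqueous Tween 30 min before s.c. PTZ at 100 mg/kg. Mice observed 30 min for clonic seizures (whole-body clonus ≥3 s with loss of righting reflex); absence counted as protection. ED50 from 3-4 groups of 6 mice; screening in groups of 4.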"}, "[5]": {"test_system": "male Swiss albino mice (CD-1)", "test": "Psychomotor seizure test 6 Hz (44 mA)", "conditions": "0.5 h, mice", "protocol": "as §1\nIn the 6 Hz test, seizures were induced by an electric stimulus of 32 mA and/or 44 mA and a frequency of 6 pulses per second. […] Before starting the test, the eye surface was gently moistened with a solution of local anesthetic (1% lidocaine solution). The study was conducted 30 minutes after intraperitoneal administration of the compounds at various doses. An electrical pulse was delivered continuously for a period of 3 seconds, followed by observation of the animal for a period of 10 seconds. During this time, immobility or stun associated with rearing, forelimb clonus, twitching of the vibrissae and Straub's tail were observed. These symptoms persist throughout the observation period, indicating the occurrence of psychomotor seizures in mice.\nas §2"}, "[6]": {"test_system": "male white Swiss mice (CD-1)", "test": "Formalin test (analgesic activity)", "protocol": "(§3) The tests were carried out using male white Swiss mice (CD-1) weighing 18-25 g. All procedures were carried out in accordance with Polish and international guidelines on ethics of animal testing, after obtaining appropriate institutional approval. The study group consisted of 8-10 animals. The tested and reference substances were administered intraperitoneally 30 minutes before given test as suspension in 1% aqueous solution of Tween. All tests/models were carried out based on the procedures described in the specialist literature: the formalin test (Beirith, A.; Santos, A. R.; Calixto, J. B.; Rodrigues, A. L.; Creczynski-Pasa, T. B. Eur. J. Pharmacol. 1998, 345, 233-245), the model of capsaicin-induced pain (Mogilski, S.; Kubacka, M.; Redzicka, A.; Kazek, G.; Dudek, M.; Malinka, W.; Filipek, B. Pharmacol. Biochem. Behav. 2015, 133, 99-110), the model of oxaliplatin-induced neuropathic pain—von Frey test (Sałat, K.; Cios, A.; Wyska, E.; Satat, R.; Mogilski, S.; Filipek, B.; Wigȩkowski, K.; Malawska, B. Pharmacol. Biochem. Behav. 2014, 122, 173-181).\nThe pain was induced by the subplantar injection of 20 μL of 2.5% formalin solution into the mice right hind paw. The animals were placed in separate, transparent observation chambers for a period of 30 minutes. The measured value was the total licking and biting time of the paw to which the formalin solution was injected. The nociceptive reaction time was calculated for the first 5 minutes after formalin injection (first phase of the test—acute pain) and in the 15-20, 20-25 and 25-30 minutes time intervals after its administration (second phase of the test—inflammatory pain). The observed inhibition of nociceptive reaction—reduction of paw licking and biting time, was interpreted as the analgesic effect of the compound tested. Based on the results obtained, the ED50 dose was calculated (dose that reduces the nociceptive reaction time by 50%). […] Compound 6 was administered at doses of 10 mg/kg, 20 mg/kg and 30 mg/kg."}, "[7]": {"test_system": "male white Swiss mice (CD-1)", "test": "Capsaicin-induced pain model", "conditions": "200 mg/kg i.p.", "protocol": "as §3\nThis test assesses the time of licking and/or biting the hind paw into which mice were injected subplantarly with capsaicin in an amount of 1.6 μg, dissolved in 20 μl of a mixture containing 0.9% saline and ethanol (5% of the final volume). Observation was carried out […] after capsaicin administration. Test compounds were administered intraperitoneally 30 minutes before administration of capsaicin. Inhibition of nociceptive reaction—shortening the time of licking and biting the paw was the measure of antinociceptive activity of the compound tested.\nValproic acid (VPA) was the reference compound in this test. […] Compound 6 was administered at 20 mg/kg, 30 mg/kg and 40 mg/kg. Test compounds were administered as a suspension in 1.0% Tween 80 solution. The control group consisted of mice treated with vehicle alone (1% Tween 80 solution). The nociceptive reaction time in this group was 43.29±3.21 seconds."}, "[8]": {"test_system": "male white Swiss mice (CD-1)", "test": "Oxaliplatin-induced neuropathic pain, von Frey test", "conditions": "baseline 2.62±0.06 g, after OXPT 1.78±0.04 g", "protocol": "as §3\nOxaliplatin (OXPT) was dissolved in a 5% glucose solution, followed by intraperitoneal administration to mice. A single dose of 10 mg/kg was used. Tactile and thermal (sensation of low temperature) allodynia associated with oxaliplatin-induced neuropathy are characterized by two phases. The early phase is acute and develops soon after administration of the OXPT, while the symptoms of the later (chronic) phase (associated with neurons damage), develops after a few days. Behavioral tests in mice with OXPT-induced neuropathy were carried out 7 days after its administration, i.e. in the late phase of neuropathy.\nThe influence of compounds tested on tactile allodynia was determined in the von Frey test. The animals were placed individually in cages with a reticulated bottom, 60 minutes before the beginning of the experiment, in order to adapt to the new environment. An electronic Von Frey apparatus (Electronic Von Frey, Bioseb, France) was used to assess the pain threshold for mechanical stimuli. The von Frey's fiber was applied to the underside of the right mouse paw with increasing pressure. […] The measurement was performed 3 times for each mouse, with at least 30 seconds between the measurements, then the results obtained were averaged. The entire study was performed 3 times: before OXPT administration to determine the baseline pain threshold; 7 days after administration of OXPT, and before administration of test compounds, to assess developing neuropathy by setting a new pain threshold; 30 minutes after administration of the compounds to determine their influence developed neuropathy.\nCompound 6 was administered at doses of 10, 20 and 30 mg/kg."}}}
{"smiles": "O=C(C(c1ccccc1)N1C(=O)CCC1=O)N1CCN(c2cccc(SC(F)(F)F)c2)CC1", "note": "(stereo not drawn) [Compound 12]", "values": [{"measurement": "ED50 6 Hz (32 mA)", "setting": "[1]", "result": 15.8, "unit": "mg/kg"}, {"measurement": "6 Hz (32 mA): number of mice protected/number of mice tested", "setting": "[1]; screening, 100 mg/kg i.p.", "result": "4/4"}, {"measurement": "TD50", "setting": "[2]", "result": 150.0, "unit": "mg/kg"}, {"measurement": "ED50 MES", "setting": "[3]; i.p.", "result": 36.2, "unit": "mg/kg"}, {"measurement": "MES: number of mice protected/number of mice tested", "setting": "[3]; screening, 100 mg/kg i.p.", "result": "4/4"}, {"measurement": "ED50 scPTZ", "setting": "[4]; i.p.", "result": ">100", "unit": "mg/kg"}, {"measurement": "scPTZ: number of mice protected/number of mice tested", "setting": "[4]; screening, 100 mg/kg i.p.", "result": "4/4"}, {"measurement": "ED50 6 Hz (44 mA)", "setting": "[5]; i.p.", "result": 57.9, "unit": "mg/kg"}, {"measurement": "6 Hz (44 mA): number of mice protected/number of mice tested", "setting": "[5]; screening, 100 mg/kg i.p.", "result": "¾"}]}
{"smiles": "CCCC(CCC)C(=O)O", "note": "[VPA, valproic acid, reference compound]", "values": [{"measurement": "ED50", "setting": "[1]; Mus musculus, ip", "result": 131, "unit": "mg/kg"}, {"measurement": "ED50 6 Hz (32 mA)", "setting": "[1]", "result": 130.6, "unit": "mg/kg"}, {"measurement": "ED50", "setting": "[6]; Mus musculus, ip, phase II (inflammatory pain, 15-30 min), i.p., mice, read-out: ED50 in the second phase of the formalin test", "result": 133, "unit": "mg/kg"}, {"measurement": "analgesic activity in the first phase of the formalin test", "setting": "[6]; phase I, 100, 150 and 200 mg/kg i.p.", "result": "no analgesic activity"}, {"measurement": "analgesic activity, capsaicin test", "setting": "[7]", "result": 42.25, "unit": "%"}, {"measurement": "nociceptive reaction time, capsaicin test", "setting": "[7]; control 43.29±3.21 seconds", "result": "25.00 ± 4.57", "unit": "s"}, {"measurement": "pain threshold, von Frey test", "setting": "[8]; 50 mg/kg i.p.", "result": "2.75 ± 0.06", "unit": "g"}, {"measurement": "pain threshold, von Frey test", "setting": "[8]; 100 mg/kg i.p.", "result": "3.18 ± 0.14", "unit": "g"}, {"measurement": "pain threshold, von Frey test", "setting": "[8]; 150 mg/kg i.p.", "result": "3.97 ± 0.30", "unit": "g"}]}
